US6939864B1, “Animal feed compositions and methods of using the same” (Purdue Research Foundation, priority 2001, dated 2005)

How the values were obtained:
[1] = tested on: serum cortisol (CS), ACTH and tumor necrosis factor-alpha (TNF); experiment: Porcine study: serum ACTH, cortisol and TNF, basal and after I.V. LPS challenge; assay type: in vivo, pigs; conditions: I.V. LPS 150 ug/kg, day 14 postweaning
From the text: The objective of this study was to evaluate the potential benefit of supplementing the neonatal pig with Vitamin C (VC) and/or Beta-glucan (BG). Thirty-two crossbred pigs were selected at birth and assigned to one of four dietary treatment groups (n=8/group). Beginning on the day of birth, pigs received their respective treatments via an oral gavage on a daily basis until weaning at 2 weeks of age. Dietary treatment groups included Control (Con; no VC or BG), VC (75 ppm), BG (0.312 g/kg body weight) and VC+BG (75 ppm and 0.312 g/kg body weight). After weaning, pigs were placed on a starter ration containing their respective dietary treatments and a Phase 1 diet specific for the University of Missouri Swine unit for a 2 week period. Body weights were recorded every 3 days to adjust dietary treatment doses. On day 14 postweaning, blood samples were collected at 30-min intervals for one hour followed by an I.V. injection of lipopolysaccharide (LPS; 150 ug/kg). LPS is part of bacterial cell walls that initiates the immune response. Blood samples were collected at 30-min intervals for an additional 3-hour period following the LPS challenge. Blood samples were analyzed for serum cortisol (CS), ACTH and tumor necrosis factor-alpha (TNF) which are indicators of acute stress response to challenge (LPS).

[2] = Calf study: body weight change and fecal scores; assay type: in vivo, calves; conditions: mean ±SE
Experimental: Three days after they were born, calves were started on all milk, milk replacer. The calves were assigned randomly to one of four treatment groups control, β-glucan, Vitamin C, and β-glucan and Vitamin C. Each treatment is represented in a block (1 block has 4 calves and each room has 3 blocks). Initial weight and temperature were taken when calves were placed on study, then weekly for six more weeks.
Fecal scores, nasal and ocular discharges were recorded daily along with room temperature and humidity. Blood samples were taken every week for seven weeks; 10 ml heparinized tube for plasma to measure cortisol and ascorbic acid; 5 ml sodium citrate tube for hematocrits, granulocytes, lymphocytes and fibrinogen.
Calves were fed milk replacer equaling 10% of their body weight per day, which was given in two equal rations (morning and afternoon). Dry milk replacer was equal to 12.5% of amount fed. Calves on treatment […] were given β-glucan equaling 0.3125% of total intake. Calves on treatment 3 and 4 received 250 mg of Vitamin C twice a day.

## O=C1O[C@H]([C@@H](O)CO)C(O)=C1O [VC, ascorbic acid]
[1]
  TNF response to the LPS challenge: more rapid decline in serum TNF
[1]; compared to Con group
  CS response to the LPS challenge: lower

## ascorbyl-2-polyphosphonate [AA]
[2]; dairy calves on milk replacer
  Mean BW change: 1.48±0.12 kg/wk
[2]; scale of 1–4, 1=solid and 4=fluid
  mean fecal scores: 1.48±0.03
